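Test compounds were applied to cells in 96-well plates for 48 hours at 5 doses. The concentration for 50% growth inhibition is given as GI50. TGI is the concentration that stops growth completely.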
Legend:
Assay in all cases: NCI-60 cell line screen, 48 h
786-0 renal = test system: 786-0 renal
A498 renal = test system: A498 renal
A549 NSCLC = test system: A549 NSCLC
ACHN renal = test system: ACHN renal
BT-549 breast = test system: BT-549 breast
CAKI-1 renal = test system: CAKI-1 renal
CCRF-CEM leukemia = test system: CCRF-CEM leukemia
COLO 205 colon = test system: COLO 205 colon
DU-145 prostate = test system: DU-145 prostate
EKVX NSCLC = test system: EKVX NSCLC
HCC-2998 colon = test system: HCC-2998 colon
HCT-116 colon = test system: HCT-116 colon
HCT-15 colon = test system: HCT-15 colon
HL-60(TB) leukemia = test system: HL-60(TB) leukemia
HOP-62 NSCLC = test system: HOP-62 NSCLC
HOP-92 NSCLC = test system: HOP-92 NSCLC
HS 578T breast = test system: HS 578T breast
HT29 colon = test system: HT29 colon
IGROV1 ovarian = test system: IGROV1 ovarian
K-562 leukemia = test system: K-562 leukemia
KM12 colon = test system: KM12 colon
LOX IMVI melanoma = test system: LOX IMVI melanoma
M14 melanoma = test system: M14 melanoma
MALME-3M melanoma = test system: MALME-3M melanoma
MCF7 breast = test system: MCF7 breast
MDA-MB-231 breast = test system: MDA-MB-231 breast
MDA-MB-435 = test system: MDA-MB-435
MDA-MB-468 breast = test system: MDA-MB-468 breast
MOLT-4 leukemia = test system: MOLT-4 leukemia
NCI-H226 lung = test system: NCI-H226 lung
NCI-H23 lung = test system: NCI-H23 lung
NCI-H460 lung = test system: NCI-H460 lung
NCI-H522 lung = test system: NCI-H522 lung
NCI/ADR-RES ovarian = test system: NCI/ADR-RES ovarian
OVCAR-3 ovarian = test system: OVCAR-3 ovarian
OVCAR-4 ovarian = test system: OVCAR-4 ovarian
OVCAR-5 ovarian = test system: OVCAR-5 ovarian
OVCAR-8 ovarian = test system: OVCAR-8 ovarian
PC-3 prostate = test system: PC-3 prostate
RPMI-8226 leukemia = test system: RPMI-8226 leukemia
RXF 393 renal = test system: RXF 393 renal
SF-268 CNS = test system: SF-268 CNS
SF-295 CNS = test system: SF-295 CNS
SF-539 CNS = test system: SF-539 CNS
SK-MEL-2 melanoma = test system: SK-MEL-2 melanoma
SK-MEL-28 melanoma = test system: SK-MEL-28 melanoma
SK-MEL-5 melanoma = test system: SK-MEL-5 melanoma
SK-OV-3 ovarian = test system: SK-OV-3 ovarian
SN12C renal = test system: SN12C renal
SNB-19 CNS = test system: SNB-19 CNS
SNB-75 CNS = test system: SNB-75 CNS
SR leukemia = test system: SR leukemia
SW-620 colon = test system: SW-620 colon
T-47D breast = test system: T-47D breast
TK-10 renal = test system: TK-10 renal
U251 CNS = test system: U251 CNS
UACC-257 melanoma = test system: UACC-257 melanoma
UACC-62 melanoma = test system: UACC-62 melanoma
UO-31 renal = test system: UO-31 renal

SMILES: Brc1ccc(N/N=C/c2c[nH]c3ccccc23)nc1
- GI50 (786-0 renal): 13.2 µM
- TGI (786-0 renal): > 100 µM
- GI50 (A498 renal): 35.2 µM
- TGI (A498 renal): > 100 µM
- GI50 (A549 NSCLC): 12.6 µM
- TGI (A549 NSCLC): > 100 µM
- GI50 (ACHN renal): 11.6 µM
- TGI (ACHN renal): > 100 µM
- GI50 (BT-549 breast): 0.17 µM
- TGI (BT-549 breast): > 100 µM
- GI50 (CAKI-1 renal): 4.35 µM
- TGI (CAKI-1 renal): > 100 µM
- GI50 (CCRF-CEM leukemia): 0.839 µM
- TGI (CCRF-CEM leukemia): > 100 µM
- GI50 (COLO 205 colon): > 100 µM
- TGI (COLO 205 colon): > 100 µM
- GI50 (DU-145 prostate): 20.5 µM
- TGI (DU-145 prostate): > 100 µM
- GI50 (EKVX NSCLC): 4.44 µM
- TGI (EKVX NSCLC): > 100 µM
- GI50 (HCC-2998 colon): 9.35 µM
- TGI (HCC-2998 colon): > 100 µM
- GI50 (HCT-116 colon): 13.2 µM
- TGI (HCT-116 colon): > 100 µM
- GI50 (HCT-15 colon): 9.19 µM
- TGI (HCT-15 colon): > 100 µM
- GI50 (HL-60(TB) leukemia): 2.81 µM
- TGI (HL-60(TB) leukemia): > 100 µM
- GI50 (HOP-62 NSCLC): 11 µM
- TGI (HOP-62 NSCLC): 59.3 µM
- GI50 (HOP-92 NSCLC): 6.66 µM
- TGI (HOP-92 NSCLC): 57.6 µM
- GI50 (HS 578T breast): 7.45 µM
- TGI (HS 578T breast): > 100 µM
- GI50 (HT29 colon): 29.4 µM
- TGI (HT29 colon): > 100 µM
- GI50 (IGROV1 ovarian): 1.63 µM
- TGI (IGROV1 ovarian): > 100 µM
- GI50 (K-562 leukemia): 4.05 µM
- TGI (K-562 leukemia): > 100 µM
- GI50 (KM12 colon): 3.68 µM
- TGI (KM12 colon): > 100 µM
- GI50 (LOX IMVI melanoma): 6.47 µM
- TGI (LOX IMVI melanoma): > 100 µM
- GI50 (M14 melanoma): 78.5 µM
- TGI (M14 melanoma): > 100 µM
- GI50 (MALME-3M melanoma): > 100 µM
- TGI (MALME-3M melanoma): > 100 µM
- GI50 (MCF7 breast): 2.43 µM
- TGI (MCF7 breast): > 100 µM
- GI50 (MDA-MB-231 breast): 2.2 µM
- TGI (MDA-MB-231 breast): 8.47 µM
- GI50 (MDA-MB-435): 79.4 µM
- TGI (MDA-MB-435): > 100 µM
- GI50 (MDA-MB-468 breast): 1.88 µM
- TGI (MDA-MB-468 breast): 6.1 µM
- GI50 (MOLT-4 leukemia): 2.67 µM
- TGI (MOLT-4 leukemia): > 100 µM
- GI50 (NCI-H226 lung): 3.78 µM
- TGI (NCI-H226 lung): > 100 µM
- GI50 (NCI-H23 lung): > 100 µM
- TGI (NCI-H23 lung): > 100 µM
- GI50 (NCI-H460 lung): 14.1 µM
- TGI (NCI-H460 lung): > 100 µM
- GI50 (NCI-H522 lung): 2.53 µM
- TGI (NCI-H522 lung): 28 µM
- GI50 (NCI/ADR-RES ovarian): 7.03 µM
- TGI (NCI/ADR-RES ovarian): > 100 µM
- GI50 (OVCAR-3 ovarian): 8.63 µM
- TGI (OVCAR-3 ovarian): > 100 µM
- GI50 (OVCAR-4 ovarian): 77.9 µM
- TGI (OVCAR-4 ovarian): > 100 µM
- GI50 (OVCAR-5 ovarian): > 100 µM
- TGI (OVCAR-5 ovarian): > 100 µM
- GI50 (OVCAR-8 ovarian): 26.3 µM
- TGI (OVCAR-8 ovarian): > 100 µM
- GI50 (PC-3 prostate): 4.83 µM
- TGI (PC-3 prostate): > 100 µM
- GI50 (RPMI-8226 leukemia): 3.07 µM
- TGI (RPMI-8226 leukemia): > 100 µM
- GI50 (RXF 393 renal): 2.5 µM
- TGI (RXF 393 renal): 80.9 µM
- GI50 (SF-268 CNS): 4.15 µM
- TGI (SF-268 CNS): > 100 µM
- GI50 (SF-295 CNS): 19.1 µM
- TGI (SF-295 CNS): > 100 µM
- GI50 (SF-539 CNS): 4.7 µM
- TGI (SF-539 CNS): > 100 µM
- GI50 (SK-MEL-2 melanoma): > 100 µM
- TGI (SK-MEL-2 melanoma): > 100 µM
- GI50 (SK-MEL-28 melanoma): > 100 µM
- TGI (SK-MEL-28 melanoma): > 100 µM
- GI50 (SK-MEL-5 melanoma): 25.6 µM
- TGI (SK-MEL-5 melanoma): > 100 µM
- GI50 (SK-OV-3 ovarian): 56.2 µM
- TGI (SK-OV-3 ovarian): > 100 µM
- GI50 (SN12C renal): 2.28 µM
- TGI (SN12C renal): > 100 µM
- GI50 (SNB-19 CNS): 11.4 µM
- TGI (SNB-19 CNS): 46.4 µM
- GI50 (SNB-75 CNS): 0.385 µM
- TGI (SNB-75 CNS): 97.9 µM
- GI50 (SR leukemia): 2.28 µM
- TGI (SR leukemia): > 100 µM
- GI50 (SW-620 colon): 76 µM
- TGI (SW-620 colon): > 100 µM
- GI50 (T-47D breast): 3.97 µM
- TGI (T-47D breast): > 100 µM
- GI50 (TK-10 renal): 48 µM
- TGI (TK-10 renal): > 100 µM
- GI50 (U251 CNS): 21 µM
- TGI (U251 CNS): > 100 µM
- GI50 (UACC-257 melanoma): > 100 µM
- TGI (UACC-257 melanoma): > 100 µM
- GI50 (UACC-62 melanoma): 37.3 µM
- TGI (UACC-62 melanoma): > 100 µM
- GI50 (UO-31 renal): 1.46 µM
- TGI (UO-31 renal): > 100 µM
